Data as given in paper PMC12396409, “Screening and hit evaluation of a microbial metabolite library against the pathogenic Plasmodium falciparum and Toxoplasma gondii parasites” (International Journal for Parasitology: Drugs and Drug …, 2025).
Structures can show the parent of a compound that is named as a salt. Where two headings read alike, the source gives them in different places.

Assays:
[1] = tested on: P. falciparum 3D7 parasites; test: P. falciparum growth inhibition assay, 2-cycle (120 h treatment), delayed-death screen and dose-response; assay type: cell-based, Plasmodium falciparum; details: for activity at 2 µg/mL: Plasmodium falciparum, 3D7
[2] = tested on: P. falciparum 3D7 parasites; test: P. falciparum growth inhibition assay, 1-cycle (72 h treatment), SYBR DNA staining (library screen at 2 μg/mL and dose-response); assay type: cell-based, Plasmodium falciparum; details: for activity at 2 µg/mL: Plasmodium falciparum, 3D7
[3] = tested on: T. gondii RH strain (RH-Tub-eYFP) tachyzoites; test: microbe, parasite or virus in culture; assay type: cell-based, Toxoplasma gondii; details: 72 h; for percent parasite growth at 2 µg/mL: Toxoplasma gondii
[4] = library screen at 2 μg/mL, 120 h, % growth, replicate 1
[5] = library screen at 2 μg/mL, 120 h, % growth, replicate 2
[6] = library screen at 2 μg/mL, 72 h, % growth, replicate 1
[7] = library screen at 2 μg/mL, 72 h, % growth, replicate 2
[8] = library screen at 2 μg/mL, % growth, replicate 1
[9] = library screen at 2 μg/mL, % growth, replicate 2
[10] = P. falciparum, 120 h, parasite screen 2 μg/mL, % growth, replicate 1
[11] = P. falciparum, 120 h, parasite screen 2 μg/mL, % growth, replicate 2
[12] = P. falciparum, 72 h, parasite screen 2 μg/mL, % growth, replicate 1
[13] = P. falciparum, 72 h, parasite screen 2 μg/mL, % growth, replicate 2
[14] = T. gondii, parasite screen 2 μg/mL, % growth, replicate 1
[15] = T. gondii, parasite screen 2 μg/mL, % growth, replicate 2

## CO/C1=C\C(C)=C\[C@@H](C)[C@@H](O)[C@@H](C)C/C(C)=C/C=C/[C@H](OC)[C@@H]([C@@H](C)[C@@H](O)[C@H](C)[C@@]2(O)C[C@@H](OC(=O)/C=C/C(=O)NC3=C(O)CCC3=O)[C@H](C)[C@@H](C(C)C)O2)OC1=O [Bafilomycin B1]
[1]; [4]
  Pf_120h_%Growth_Rep1: 5.87%
[1]; [5]
  Pf_120h_%Growth_Rep2: 11.47%
[2]; [6]
  Pf_72h_%Growth_Rep1: 2.46%
[2]; [7]
  Pf_72h_%Growth_Rep2: 1.87%
[3]; [8]
  Tg_72h_%Growth_Rep1: -0.95%
[3]; [9]
  Tg_72h_%Growth_Rep2: 0.68%

## CCCN1C[C@H](C)[C@@H](O)[C@](C)(O)[C@@H](CC)OC(=O)[C@H](C)[C@@H](O[C@H]2C[C@@](C)(OC)[C@@H](O)[C@H](C)O2)[C@H](C)[C@@H](O[C@@H]2O[C@H](C)C[C@H](N(C)C)[C@H]2O)[C@](C)(O)C[C@H]1C [Gamithromycin, reference compound]
[1]; P. falciparum, 2 μg/mL, 120 h
  2) Growth (%) at 120 h: 15.46%
[1]; P. falciparum, growth at 72 h / growth at 120 h, 2 μg/mL
  3) Fold change (72 h/120 h): 3.8
[1]; [4]
  Pf_120h_%Growth_Rep1: 12.20%
[1]; [5]
  Pf_120h_%Growth_Rep2: 18.72%
[2]; P. falciparum, 2 μg/mL, 72 h
  1) Growth (%) at 72 h: 58.53%
[2]; [6]
  Pf_72h_%Growth_Rep1: 42.98%
[2]; [7]
  Pf_72h_%Growth_Rep2: 74.08%
[3]; [8]
  Tg_72h_%Growth_Rep1: 33.80%
[3]; [9]
  Tg_72h_%Growth_Rep2: 38.81%

## C[C@H]1O[C@@H]2CC(=O)O[C@@H]2C2=C1C(=O)c1c(O)cc3c(c1C2=O)[C@H]1C[C@@H](N(C)C)[C@H](O)[C@]3(C)O1 [Sch 38519]
[1]; [10]
  Pf_120h_%Growth_Rep1: 51.02%
[1]; [11]
  Pf_120h_%Growth_Rep2: 51.53%
[2]; [12]
  Pf_72h_%Growth_Rep1: 54.64%
[2]; [13]
  Pf_72h_%Growth_Rep2: 23.72%
[3]; [14]
  Tg_72h_%Growth_Rep1: 50.53%
[3]; [15]
  Tg_72h_%Growth_Rep2: 29.49%

## CC[C@H]1OC(=O)[C@H](C)[C@@H](O[C@H]2C[C@@](C)(OC)[C@@H](O)[C@H](C)O2)[C@H](C)[C@@H](O[C@@H]2O[C@H](C)C[C@H]([N+](C)(C)[O-])[C@H]2O)[C@](C)(O)C[C@@H](C)C(=O)[C@H](C)[C@@H](O)[C@]1(C)O [Erythromycin A N-oxide]
[1]; [4]
  Pf_120h_%Growth_Rep1: 82.07%
[1]; [5]
  Pf_120h_%Growth_Rep2: 80.30%
[2]; [6]
  Pf_72h_%Growth_Rep1: 82.02%
[2]; [7]
  Pf_72h_%Growth_Rep2: 85.53%
[3]; [8]
  Tg_72h_%Growth_Rep1: 107.95%
[3]; [9]
  Tg_72h_%Growth_Rep2: 98.15%

## CC[C@H]1CCC[C@H](O[C@H]2CC[C@H](N(C)C)[C@@H](C)O2)[C@@H](C)C(=O)C2=C[C@@H]3[C@@H](C=C(C)[C@@H]4C[C@@H](O[C@@H]5O[C@@H](C)[C@H](OC)[C@@H](OC)[C@H]5OC)C[C@@H]34)[C@@H]2CC(=O)O1 [Spinosyn D]
[1]; [10]
  Pf_120h_%Growth_Rep1: 102.44%
[1]; [11]
  Pf_120h_%Growth_Rep2: 14.31%
[2]; 3D7, 72 h treatment, mean ± S.D., n ≥ 3, read-out: IC50 (μM), P. falciparum
  IC50: > 1 µM
[2]; [12]
  Pf_72h_%Growth_Rep1: 88.37%
[2]; [13]
  Pf_72h_%Growth_Rep2: 73.59%
[2]; library screen at 2 μg/mL, 3D7, 72 h, DD from the 120 h timepoint
  Screen (P. falciparum): I
[3]; [14]
  Tg_72h_%Growth_Rep1: 127.19%
[3]; [15]
  Tg_72h_%Growth_Rep2: 79.47%

## CN1C(=O)c2ccccc2NC(=O)/C1=C/c1ccccc1 [Dehydrocyclopeptine]
[1]; P. falciparum, 120 h, screen at 2 μg/mL, replicate 1
  Pf_120h_%Growth_Rep1: 82.86%
[1]; P. falciparum, 120 h, screen at 2 μg/mL, replicate 2
  Pf_120h_%Growth_Rep2: 97.23%
[2]; P. falciparum, 72 h, screen at 2 μg/mL, replicate 1
  Pf_72h_%Growth_Rep1: 83.17%
[2]; P. falciparum, 72 h, screen at 2 μg/mL, replicate 2
  Pf_72h_%Growth_Rep2: 27.60%
[3]; T. gondii, screen at 2 μg/mL, replicate 1
  Tg_72h_%Growth_Rep1: 109.69%
[3]; T. gondii, screen at 2 μg/mL, replicate 2
  Tg_72h_%Growth_Rep2: 83.37%

## Cc1c2c(c(O)c3c(O)cccc13)C(=O)[C@]1(O)C(=O)C(C(N)=O)=C(O)[C@@H](N(C)C)[C@@H]1C2 [Anhydrotetracycline hydrochloride]
[1]; library screen at 2 μg/mL, 120 h, % growth, replicate 1, read-out: Pf_120h_%Growth_Rep1
  activity at 2 µg/mL: 52.2%
[1]; library screen at 2 μg/mL, 120 h, % growth, replicate 2, read-out: Pf_120h_%Growth_Rep2
  activity at 2 µg/mL: 57%
[2]; library screen at 2 μg/mL, 72 h, % growth, replicate 1, read-out: Pf_72h_%Growth_Rep1
  activity at 2 µg/mL: 77.2%
[2]; library screen at 2 μg/mL, 72 h, % growth, replicate 2, read-out: Pf_72h_%Growth_Rep2
  activity at 2 µg/mL: 74%
[3]; library screen at 2 μg/mL, % growth, replicate 1, read-out: Tg_72h_%Growth_Rep1
  percent parasite growth at 2 µg/mL: 89.6%
[3]; library screen at 2 μg/mL, % growth, replicate 2, read-out: Tg_72h_%Growth_Rep2
  percent parasite growth at 2 µg/mL: 88.3%
